The target in series [1] is T1, Rat adenosine A2A receptor (Rattus norvegicus, UniProt P30543).
T1 construct: tissue Nippon SLC (animals); host or cells: rat (SD) corpus striatum membrane preparation
The experiment in a line: Adenosine A2A receptor binding test (3H-CGS21680 binding, rat corpus striatum membranes). Particulars: test compound 10^−7 mol/L, 25° C., 120 minutes, read-out: Rat adenosine A2A receptor binding inhibition rate (%) (10^−7 mol/L). How it is done: This test was carried out in a similar manner to a Bruns et al's method (Molecular Pharmacology, Vol. 29, p. 331, 1986).
Corpus striatum of a rat (SD rat, by Nippon SLC) was suspended in 50 mL of an ice-cooled 50 mmol/L tris(hydroxymethyl)aminomethane hydrochloride (Tris-HCl) buffer (pH 7.7) using a polytron homogenizer (by Kinematica). The resulting suspension was centrifuged (48,000×g, 20 minutes), and the resulting precipitate was resuspended by adding the same amount of a 50 mmol/L Tris-HCl buffer, followed by centrifugation under the same condition. The resulting final precipitate was suspended by adding a 50 mmol/L Tris-HCl buffer [containing 10 mmol/L magnesium chloride, adenosine deaminase 0.02 units/mg tissue (by Sigma)] thereto so that the tissue concentration was 5 mg (wet weight)/mL.
To 100 μl, of the above purified cell suspension, 80 μL (final concentration: […]) of tritium-labeled CGS-21680 {^3H-2-[p-(2-carboxyethyl)phenethylamino]-5′-(N-ethylcarboxamido)-adenosine: 40 curies/mmol: by New England Nuclear [The Journal of Pharmacology and Experimental Therapeutics, Vol. 251, p. 888, 1989]) and 20 μL of a test compound solution (10^−7 mol/L; a solution of a test compound in DMSO was diluted with a Tris-HCl buffer) were added. The resulting mixture was allowed to stand at 25° C. for 120 minutes, followed by rapid suction filtration through a glass fiber paper filter (GF/C; by Whatman). The filter was immediately washed three times with 200 μL of an ice-cooled 50 mmol/L Tris-HCl buffer. The glass fiber paper filter was transferred into a vial, Microscinti (by Perkin Elmer) was added thereto, and the radioactivity level was measured with Topcount (by Perkin Elmer).
The inhibition rate of the test compound to the adenosine A2A receptor binding (3H-CGS21680 binding) was calculated according to the following equation.
Inhibition rate (%)={1−[(Amount of binding in the presence of compound)−(Amount of non-specific binding)]/[(Amount of total binding)−(Amount of non-specific binding)]}×100
Amount of total binding means the ^3H-CGS21680 binding radioactivity content in the absence of the test compound. Amount of non-specific binding means the ^3H-CGS21680 binding radioactivity content in the presence of 100 μmol/L cyclopentyladenosine (CPA; by Sigma). Amount of binding in the presence of compound means the ^3H-CGS21680 binding radioactivity content in the presence of 10^−7 mol/L, of the test compound.

The subject of series [2] is CGS21680-induced catalepsy. The series can be described thus: Effect on CGS21680-induced catalepsy. It is filed as in vivo, male ddY mice. Particulars: mice; 10 mg/kg orally 30 minutes before i.c.v. CGS21680 10 μg/20 μL; scored 1 hour after administration; 80% or more judged active. How it is done: Parkinson's disease is motor dysfunction based on the degeneration and cell death of the nigrostriatal dopaminergic neuron. […] Therefore, it is considered that the adenosine A2A receptor functions to promote the output of GABAergic neurons from the corpus striatum into the external segment of globus pallidus, and as a result, catalepsy is induced by the administration of CGS21680.
The experiment was carried out using 10 male ddY mice of 5 weeks of age (body weight, 22 to 25 g, by Nippon SLC) per group. CGS21680 (by Kyowa Hakko Kogyo) was dissolved in physiological saline (by Otsuka Pharmaceutical), and intracerebroventricularly injected to the mice in an amount of 10 μg/20 μL. The test compound was used by being suspended in distilled water containing 0.5 w/v % methyl cellulose 400 cP (hereinafter abbreviated as MC) (by Otsuka Pharmaceutical). […] At 1 hour after the administration of the test compound, the degree of catalepsy was measured with respect to each of the mice such that a pair of only forelimbs and a pair of only hindlimbs of each mouse were placed by turns on a vertically installed acrylic stand with a height of 4.5 cm and a width of 1.0 cm. […]
The catalepsy remission rate was calculated according to the following equation. […]

Molecules are shown by their SMILES.

T1 sequence (P30543 whole entry): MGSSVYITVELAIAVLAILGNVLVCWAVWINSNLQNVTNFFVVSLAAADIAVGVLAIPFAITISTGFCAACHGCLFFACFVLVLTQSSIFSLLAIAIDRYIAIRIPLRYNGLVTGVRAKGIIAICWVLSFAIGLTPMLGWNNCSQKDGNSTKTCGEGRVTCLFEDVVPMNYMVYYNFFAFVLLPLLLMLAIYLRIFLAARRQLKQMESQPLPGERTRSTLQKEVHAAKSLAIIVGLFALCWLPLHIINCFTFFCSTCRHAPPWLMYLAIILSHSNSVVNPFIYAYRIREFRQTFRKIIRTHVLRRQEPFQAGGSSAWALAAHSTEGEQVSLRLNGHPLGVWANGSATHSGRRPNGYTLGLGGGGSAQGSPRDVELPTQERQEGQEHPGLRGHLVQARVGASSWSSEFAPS

Consider `O=C(c1ccccn1)c1sc(-c2nc3c([nH]2)CSCC3)nc1-c1ccco1` [Compound 29, 4-(2-Furyl)-5-(pyridin-2-ylcarbonyl)-2-(3,4,6,7-tetrahydrothiopyrano[3,4-d]imidazol-2-yl)thiazole], for which the inhibition at 0.1 µM in series [1] was 90%. Regarding `O=C(c1ccccn1)c1sc(-c2nc3ccccc3[nH]2)nc1-c1ccco1` [Compound 24, 4-(2-Furyl)-5-(pyridin-2 ylcarbonyl)-2-(2-benzimidazolyl)thiazole], in series [1], the inhibition at 0.1 µM was 94%. One may read the melting point as the temperature of the solid-liquid transition. Regarding `COc1ccc(-c2c[nH]c(-c3nc(-c4ccco4)c(C(=O)C4CCOCC4)s3)n2)cc1` [Compound 19, 4-(2-Furyl)-2-[4-(4-methoxyphenyl)imidazol-2-yl]thiazol-5-yl tetrahydropyran-4-yl ketone], the melting point fell in the range of 178 to 180 °C. For the same compound, the inhibition at 0.1 µM in series [1] came out at 63%. As for `CC(C)CNC(=O)c1nc(-c2ccco2)c(C(=O)C2CCOCC2)s1` [Compound 33, 4-(2-Furyl)-5-(tetrahydropyran-4-ylcarbonyl)thiazol-2-carboxylic acid isobutylamide], the inhibition at 0.1 µM in series [1] came to 50%.

Turning to `O=C(c1sc(-c2nc3ncccc3[nH]2)nc1-c1ccco1)C1CCOCC1` [Compound 17, 4-(2-Furyl)-2-(imidazo[4,5-b]pyridin-2-yl)thiazol-5-yl tetrahydropyran-4-yl ketone], the catalepsy remission rate in series [2] is 100%. On to `O=C(Nc1ccccc1)c1nc(-c2ccco2)c(C(=O)C2CCOCC2)s1` [Compound 32, 4-(2 Furyl)-5-(tetrahydropyran-4-ylcarbonyl)thiazol-2-carboxylic acid phenylamide], for which, in series [1], the inhibition at 0.1 µM amounted to 26%.

With `O=C(c1sc(-c2nc3cnccc3[nH]2)nc1-c1ccco1)C1CCOCC1` [Compound 18, 4-(2-Furyl)-2-(imidazo[4,5-c]pyridin-2-yl)thiazol-5-yl tetrahydropyran-4-yl ketone], the inhibition at 0.1 µM in series [1] worked out at 81%.

The record behind these values is patent US20100280023A1, “THIAZOLE DERIVATIVES” (KYOWA HAKKO KOGYO CO., LTD., priority 2005, published 2010).
